{"source": "patent US20250302080A1", "about": "“SWEETNESS AND/OR FLAVOR ENHANCER” (AJINOMOTO CO., INC., priority 2022, published 2025)", "key": {"[1]": {"assay": "Sensory evaluation of sweetness intensity in sucralose solution (Experimental Examples 23-24)", "details": "sucralose solution; added alone; 3.0 points or more", "method": "A negative control sucralose solution (0.0140 wt % sucralose solution) was prepared by dissolving sucralose in filtered water.\n(§1) A sensory evaluation of sweetness intensity was performed for each sample by a panel of four experts according to the following evaluation criteria.\nSweetness intensity was evaluated by 0.0 to 10.0 point based on the following reference samples (negative control (hereinafter referred to as NC) (0.0 point); reference 1 (hereinafter referred to as R1) (3.0 points), reference 2 (hereinafter referred to as R2) (5.0 points); reference 3 (hereinafter referred to as R3) (10.0 points)). The average score (rounded to two decimal places) of each expert panelist was calculated. An average score of 3.0 points or more was considered to be functional. • NC (0.0 point): 0.0140 wt % sucralose solution (solvent: filtered water) • R1 (3.0 points): 0.0164 wt % sucralose solution (solvent: filtered water) • R2 (5.0 points): 0.0180 wt % sucralose solution (solvent: filtered water) • R3 (10.0 points): 0.0220 wt % sucralose solution (solvent: filtered water)\nA sensory evaluation of sweetness intensity was performed for each sample by a panel of four experts according to the same evaluation criteria as in Experimental Example 23."}, "[2]": {"assay": "Sensory evaluation of sweetness intensity in sucrose solution (Experimental Examples 25-27)", "details": "added alone, 3.0 points or more", "method": "A negative control sucrose solution (0.7 wt % sucrose solution) was prepared by dissolving sucrose in filtered water.\nas §1\nSweetness intensity was evaluated by 0.0 to 10.0 points based on the following reference samples (negative control (hereinafter referred to as NC) (0.0 point); reference 1 (hereinafter referred to as R1) (3.0 points), reference 2 (hereinafter referred to as R2) (5.0 points); reference 3 (hereinafter referred to as R3) (10.0 points)). The average score (rounded to two decimal places) of each expert panelist was calculated. An average score of 3.0 points or more was considered to be functional. • NC (0.0 point): 7.0 wt % sucrose solution (solvent: filtered water) • R1 (3.0 points): 7.3 wt % sucrose solution (solvent: filtered water) • R2 (5.0 points): 7.5 wt % sucrose solution (solvent: filtered water) • R3 (10.0 points): 8.0 wt % sucrose solution (solvent: filtered water)\nA sensory evaluation of sweetness intensity was performed for each sample by a panel of four experts according to the same evaluation criteria as in Experimental Example 25."}}, "data": [{"smiles": "CCCCCCCCCC(=O)O", "note": "[decanoic acid]", "values": [{"measurement": "concentration at which a sweetness-enhancing effect was confirmed", "setting": "[1]", "value": 10, "unit": "ppb"}, {"measurement": "concentration at which a sweetness-enhancing effect was confirmed", "setting": "[2]", "value": 10, "unit": "ppb"}]}]}
